Results: article PMC3253113, “Presenilin Is the Molecular Target of Acidic γ-Secretase Modulators in Living Cells” (PLoS ONE, 2012)
“Also recorded” adds a separate entry of the source. Where two headings read alike, the source gives them in different places. Values belong to the molecule of their own block, whether it stands above or below them.

How the values were obtained:
Aβ42 levels = test: Aβ42-lowering activity in PS70 cells, sandwich ELISA of conditioned media; settings: CHO, 24 h, read-out: IC50 (Aβ42), Aβ42-lowering activity
PSEN1-NTF [1] = molecular target: T1, PSEN1-NTF (Homo sapiens, UniProt P49768); settings: N2a-ANPP membranes, cell-free, 0.5 µM AR243 co-incubated with 100 µM competitor
PSEN1-CTF [2] = molecular target: T2, PSEN1-CTF (Homo sapiens, UniProt P49768); test: Photo-affinity labeling in vitro, HEK293T membrane preparations; assay type: binding; design: host or cells: HEK293T membrane preparations
Method: Subsequently, cells were UV-irradiated on ice for 30 min at 365 nm and for 30 min at 302 nm. As negative controls, UV irradiation was omitted or cells were incubated with DMSO vehicle or compound AR80, which was structurally identical to AR243 but lacked the biotin moiety. Cells were washed and harvested in PBS and incubated with hypotonic buffer (10 mM Tris pH 7.4, 1x protease inhibitor mix) for 10 min on ice. To prepare cellular membranes, cells were passed 10 times through a 30G needle and centrifuged at 800×g, 10 min, 4°C. The post-nuclear supernatant was centrifuged at 18.000×g, 45 min, 4°C. […] The total protein concentration of the membrane preparations was determined by BCA assay, concentrations and volumes of each sample were adjusted, and 5x RIPA buffer was added to a final concentration of 1x RIPA buffer (150 mM NaCl, 1.0% NP-40, 0.5% sodium deoxycholate, 0.1% SDS, […], pH 8.0). […] Protein concentrations were again determined and adjusted to equal levels prior to the addition of streptavidin magnetic beads (Invitrogen). […] The eluted material was separated on 12% Bis-Tris gels and analyzed by Western blotting. Chemiluminescence was recorded with a LAS 3000 ECL camera system (Fuji Photo Film GmbH, Duesseldorf, Germany) or on CL-XPosure film (Fisher Scientific GmbH, Schwerte, Germany). […]

endogenous PSEN1-NTF = molecular target: T3, endogenous PSEN1-NTF (Homo sapiens, UniProt P49768); test: as above; assay type: binding
T3 construct: host or cells: HEK293T membrane preparations

Nicastrin = Nicastrin (Homo sapiens, UniProt Q92542); test: Photo-affinity labeling in vitro, N2a-ANPP membrane preparations; assay type: binding; settings: N2a-ANPP membranes, 0.25% CHAPSO, 0.5 µM photo-probe, UV
PEN-2 = PEN-2 (Homo sapiens, UniProt Q9NZ42); test: as above; assay type: binding; settings: N2a-ANPP membranes, 0.25% CHAPSO, 0.5 µM photo-probe, UV
Aβ38 levels = Aβ38 levels in PS70 cells, sandwich ELISA of conditioned media; settings: CHO cells with wild type APP and PSEN1, increasing concentrations
PSEN1-NTF [3] = molecular target: T1, PSEN1-NTF; test: Photo-affinity labeling in living N2a-ANPP cells; assay type: cell-based; settings: live N2a-ANPP cells, 0.2 µM photo-probe, UV 365 and 302 nm
Method: (§1) Subsequently, cells were UV-irradiated on ice for 30 min at 365 nm and for 30 min at 302 nm. As negative controls, UV irradiation was omitted or cells were incubated with DMSO vehicle or compound AR80, which was structurally identical to AR243 but lacked the biotin moiety. Cells were washed and harvested in PBS and incubated with hypotonic buffer (10 mM Tris pH 7.4, 1x protease inhibitor mix) for 10 min on ice. To prepare cellular membranes, cells were passed 10 times through a 30G needle and centrifuged at 800×g, 10 min, 4°C. The post-nuclear supernatant was centrifuged at 18.000×g, 45 min, 4°C. […] The total protein concentration of the membrane preparations was determined by BCA assay, concentrations and volumes of each sample were adjusted, and 5x RIPA buffer was added to a final concentration of 1x RIPA buffer (150 mM NaCl, 1.0% NP-40, 0.5% sodium deoxycholate, 0.1% SDS, […], pH 8.0). […] Protein concentrations were again determined and adjusted to equal levels prior to the addition of streptavidin magnetic beads (Invitrogen). […] The eluted material was separated on 12% Bis-Tris gels and analyzed by Western blotting. Chemiluminescence was recorded with a LAS 3000 ECL camera system (Fuji Photo Film GmbH, Duesseldorf, Germany) or on CL-XPosure film (Fisher Scientific GmbH, Schwerte, Germany).

PSEN1-CTF [4] = molecular target: T2, PSEN1-CTF; test: Photo-affinity labeling in living N2a-ANPP cells; assay type: cell-based; settings: live N2a-ANPP cells, 0.2 µM photo-probe, UV 365 and 302 nm
Method: as §1

APH-1 = APH-1 (Homo sapiens, UniProt Q96BI3); test: Photo-affinity labeling in vitro, N2a-ANPP membrane preparations; assay type: binding; settings: N2a-ANPP membranes, 0.25% CHAPSO, 0.5 µM photo-probe, UV
PSEN1-CTF [5] = molecular target: T2, PSEN1-CTF; test: as above; assay type: binding; settings: N2a-ANPP membranes, 0.25% CHAPSO, 0.5 µM photo-probe, UV
PSEN1-NTF [6] = molecular target: T1, PSEN1-NTF; test: Competition of photo-probe AR243 binding, HEK293T membrane preparations; settings: HEK293T membranes, excess of competitor (100 µM)
N2a-ANPP cells = test: Cell viability, alamarBlue reagent; assay type: cell-based
Method: Cell viability was assessed using the alamarBlue® reagent (Invitrogen). N2a-ANPP cells were seeded at low density in 96-well plates (4000 cells/well) and cultured for 24 h. The cells were then treated in duplicates with increasing concentrations of the respective compounds or DMSO as vehicle for an additional 24 h. 20 µl alamarBlue® was added to cells cultured in 200 µl medium and incubated overnight. Absorbance was measured with a Paradigm™ microplate reader at 570 nm, using 600 nm as the reference wavelength, and percent viability of vehicle control was calculated.

Compound: COc1cc(/C=C2\CCCN([C@@H](C)c3ccc(F)cc3)C2=O)ccc1-n1cnc(C)c1 [E-2012]
- Competition of AR243 binding to PSEN1-NTF (PSEN1-NTF [1]): more modest reductions; also recorded: only partially competed
- IC50 (Aβ42 levels): 53 nM

Compound: CC(C)CC(C(=O)O)c1cc(-c2ccc(C(F)(F)F)cc2)cc(-c2ccc(C(F)(F)F)cc2)c1 (centres unmarked) [JNJ-40418677]
- IC50 (Aβ42 levels): 290 nM

Compound: O=C(O)CC1CCN(C(C#CCCCCOC(=O)CCCC[C@@H]2SC[C@@H]3NC(=O)N[C@@H]32)c2ccc(C3(C(F)(F)F)N=N3)cc2)C(c2ccc(C(F)(F)F)cc2)C1 (stereo partly drawn) [AR243, 2-(1-(7-((5-((3aS,4S,6aR)-2-oxohexahydro-1H-thieno[3,4-d]imidazol-4-yl)pentanoyl)oxy)-1-(4-(3(trifluoromethyl)-3H-diazirin-3-yl)phenyl)hept-2-yn-1-yl)-2-(4(trifluoromethyl)phenyl)piperidin-4-yl)acetic acid]
- Photo-affinity labeling of PSEN1-CTF (Western blotting) (PSEN1-CTF [2]): not PSEN1-CTF
- Photo-affinity labeling of endogenous PSEN1-NTF (Western blotting) (endogenous PSEN1-NTF): labeling of endogenous PSEN1-NFT
- Photo-affinity labeling of Nicastrin (Western blotting) (Nicastrin): did not demonstrate binding
- Photo-affinity labeling of PEN-2 (Western blotting) (PEN-2): did not demonstrate binding
- Effect on Aβ38 levels (Aβ38 levels): concomitant increase in Aβ38 levels
- Photo-affinity labeling of PSEN1-NTF in living cells (Western blotting) (PSEN1-NTF [3]): efficient labeling of PSEN1-NTF; also recorded: demonstrated binding of the photo-probe to PSEN1-NTF
- Photo-affinity labeling of PSEN1-CTF in living cells (Western blotting) (PSEN1-CTF [4]): did not demonstrate binding
- Photo-affinity labeling of APH-1 (Western blotting) (APH-1): did not demonstrate binding
- Photo-affinity labeling of PSEN1-CTF (Western blotting) (PSEN1-CTF [5]): did not demonstrate binding
- IC50 (Aβ42 levels): 290 nM

Further molecules by falling IC50 (Aβ42 levels), results first:

- IC50 (Aβ42 levels): 190 nM
Compound: CC(C)C#CC(c1ccc(C2(C(F)(F)F)N=N2)cc1)N1CCC(CC(=O)O)CC1c1ccc(C(F)(F)F)cc1 (centres unmarked) [AR80]

- Displacement of AR243 from PSEN1-NTF (PSEN1-NTF [6]): caused displacement of the photo-probe
- Competition of AR243 binding to PSEN1-NTF (PSEN1-NTF [1]): efficiently reduced the labeling signal
- IC50 (Aβ42 levels): 87 nM
Compound: CC(C)C#CC(c1ccc(Cl)cc1)N1CCC(CC(=O)O)CC1c1ccc(C(F)(F)F)cc1 (centres unmarked) [BB25]
- Concentrations with dose-dependent cytotoxicity (N2a-ANPP cells): > 10 µM

- Competition of AR243 binding to PSEN1-NTF (PSEN1-NTF [1]): only partially competed
- Competition of AR243 binding to PSEN1-NTF (PSEN1-NTF [1]; listed as compound 2): more modest reductions
- IC50 (Aβ42 levels): 77 nM
Compound: CCOc1cc(C)c(Nc2ccnc(N3CCN(c4ccc(OC)cc4)C(C)(C)C3)n2)cc1C(C)C [Compound 2]

- IC50 (Aβ42 levels): 54 nM
Compound: COc1cc(-c2cc(C)c(NC(C)c3ccc(F)cc3)nn2)ccc1-n1cnc(C)c1 (centres unmarked) [Compound 1]
- Competition of AR243 binding to PSEN1-NTF (PSEN1-NTF [1]): reduced binding of the photo-probe as effectively as the acidic compound JNJ-40418677
